Assays:
PC-3 = assay: cells; conditions: Homo sapiens, PC-3, 72 h
Description: Cytotoxicity against human PC3 cells after 72 hrs by MTT assay

Beta-glucuronidase = molecular target: T1, Beta-glucuronidase (Homo sapiens, UniProt P08236); assay: Inhibition of beta-glucuronidase activity (unknown origin) assessed as p-nitrophenol formation after 30 mins using p-nitrophenyl-beta-D-glucuronide as substrate by spectrophotometry
T1 sequence (P08236 whole entry): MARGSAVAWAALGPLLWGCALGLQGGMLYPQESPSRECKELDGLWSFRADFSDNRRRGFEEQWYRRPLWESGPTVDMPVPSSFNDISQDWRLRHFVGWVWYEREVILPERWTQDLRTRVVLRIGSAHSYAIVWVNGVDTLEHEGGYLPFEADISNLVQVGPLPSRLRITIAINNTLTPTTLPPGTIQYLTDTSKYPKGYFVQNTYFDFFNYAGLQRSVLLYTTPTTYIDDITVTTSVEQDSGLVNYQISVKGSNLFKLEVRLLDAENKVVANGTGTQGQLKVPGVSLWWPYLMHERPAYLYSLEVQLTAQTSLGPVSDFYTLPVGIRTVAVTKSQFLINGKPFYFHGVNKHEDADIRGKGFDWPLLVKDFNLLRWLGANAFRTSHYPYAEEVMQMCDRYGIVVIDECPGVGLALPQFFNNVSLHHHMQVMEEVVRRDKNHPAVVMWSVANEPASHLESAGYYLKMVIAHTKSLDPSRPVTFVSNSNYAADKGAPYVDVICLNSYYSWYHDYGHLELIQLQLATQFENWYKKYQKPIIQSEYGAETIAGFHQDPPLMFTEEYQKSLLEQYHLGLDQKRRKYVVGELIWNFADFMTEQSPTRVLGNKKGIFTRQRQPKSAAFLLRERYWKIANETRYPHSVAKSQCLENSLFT

## O=c1[nH]c(-c2ccc(Cl)cc2)nc2ccccc12
PC-3
  IC50: > 30 µM

## O=c1[nH]c(-c2ccc([N+](=O)[O-])cc2)nc2ccccc12
Beta-glucuronidase
  IC50: 20.1 µM
PC-3
  IC50: > 30 µM

## CN(C)c1ccc(-c2nc(O)c3ccccc3n2)cc1
Beta-glucuronidase
  IC50: 5.5 µM
PC-3
  IC50: > 30 µM

## COc1ccc(-c2nc(O)c3ccccc3n2)cc1OC
PC-3
  IC50: > 30 µM

## O=c1[nH]c(-c2ccccc2O)nc2ccccc12
Beta-glucuronidase
  IC50: 10 µM
PC-3
  IC50: > 30 µM

## O=c1[nH]c(-c2ccc(O)cc2)nc2ccccc12
Beta-glucuronidase
  IC50: 22.2 µM
PC-3
  IC50: > 30 µM

## Cc1ccc(-c2nc3ccccc3c(=O)[nH]2)cc1
Beta-glucuronidase
  IC50: 173 µM
PC-3
  IC50: > 30 µM

## O=c1[nH]c(-c2cccc(O)c2)nc2ccccc12
Beta-glucuronidase
  IC50: 198 µM
PC-3
  IC50: > 30 µM

## O=c1[nH]c(-c2cccc([N+](=O)[O-])c2)nc2ccccc12
Beta-glucuronidase
  IC50: 50.4 µM
PC-3
  IC50: > 30 µM

## COc1ccc(-c2nc3ccccc3c(=O)[nH]2)cc1O
Beta-glucuronidase
  IC50: 2.8 µM
PC-3
  IC50: > 30 µM

## O=c1[nH]c(-c2c(Cl)cccc2Cl)nc2ccccc12
PC-3
  IC50: > 30 µM

## COc1cc(-c2nc3ccccc3c(=O)[nH]2)cc(OC)c1OC
Beta-glucuronidase
  IC50: 120 µM
PC-3
  IC50: > 30 µM

## CCOc1cc(-c2nc3ccccc3c(=O)[nH]2)ccc1O
PC-3
  IC50: > 30 µM

## O=c1[nH]c(-c2ccccc2[N+](=O)[O-])nc2ccccc12
PC-3
  IC50: > 30 µM

## O=c1[nH]c(-c2ccc(O)c(O)c2)nc2ccccc12
PC-3
  IC50: > 30 µM

## O=c1[nH]c(-c2ccc(Cl)cc2Cl)nc2ccccc12
PC-3
  IC50: > 30 µM

## O=c1[nH]c(-c2cc(O)ccc2O)nc2ccccc12
PC-3
  IC50: > 30 µM

## COc1cccc(-c2nc3ccccc3c(=O)[nH]2)c1O
PC-3
  IC50: > 30 µM

## CCOc1ccccc1-c1nc2ccccc2c(=O)[nH]1
PC-3
  IC50: > 30 µM

## COc1ccc(O)c(-c2nc3ccccc3c(=O)[nH]2)c1
PC-3
  IC50: > 30 µM

## O=c1[nH]c(-c2ccccc2Cl)nc2ccccc12
PC-3
  IC50: > 30 µM

## O=c1[nH]c(-c2c(O)cccc2Br)nc2ccccc12
PC-3
  IC50: > 30 µM

## CCOc1ccc(-c2nc3ccccc3c(=O)[nH]2)cc1
PC-3
  IC50: > 30 µM

## COc1ccc(-c2nc3ccccc3c(=O)[nH]2)cc1
Beta-glucuronidase
  IC50: 1.1 µM
PC-3
  IC50: > 30 µM

From ChEMBL document CHEMBL3286100, “Synthesis and β-glucuronidase inhibitory activity of 2-arylquinazolin-4(3H)-ones” (Bioorg Med Chem, 2014)
